Reference: article PMC7854510 (Molecular microbiology, 2020)

Target: T1, rLacR (UA159) (Streptococcus mutans, UniProt P26422)
T1 sequence (P26422 1-251): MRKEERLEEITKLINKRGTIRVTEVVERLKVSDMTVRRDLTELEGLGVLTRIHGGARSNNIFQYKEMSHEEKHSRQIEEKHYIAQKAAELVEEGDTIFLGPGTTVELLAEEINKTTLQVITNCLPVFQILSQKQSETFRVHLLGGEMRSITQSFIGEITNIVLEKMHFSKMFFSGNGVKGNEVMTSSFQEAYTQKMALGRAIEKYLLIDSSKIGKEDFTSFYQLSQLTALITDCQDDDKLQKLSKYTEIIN
Assay: DNase I footprinting by capillary electrophoresis
Format: binding
Details: 5 mM; fluorescent UA159 lacA probe

O=P(O)(O)OC[C@H]1OC(O)[C@H](O)[C@@H](O)[C@H]1O (stereo partly shown) [Gal-6-P]
DNase I footprinting by capillary electrophoresis (DFACE): addition of Gal-6-P resulted in the appearance of a DNase I hyper-sensitive site
